Experimental data from patent publication US20150238488A1, “DRUG COMPOSITION FOR TREATING TUMORS AND APPLICATION THEREOF” (priority 2012, published 2015).
Like-named read-outs stand apart in the source and are kept apart here.

Experiments:
[1] = test system: K562/ADR leukemia transplanted tumor; assay: Experiment 2-1: inhibition of leukemia transplanted tumor in nude mice (BBM, IM); format: in vivo, BALB/c-nu nude mice; details: K562/ADR xenograft, 100 mg/kg each drug, intragastric, 2 times a day, 14 days, Day 23; for Tumor inhibition rate (%): control = 0; for Tumor weight: x ± s
Procedure: Leukemia cell lines: K562/ADR (ADM-resistant human chronic granulocytic leukemia cell line);
(§1) Animals: BALB/c-nu nude mice
(§2) Under sterile conditions, the above tumor cells were collected in the logarithmic growth phase, and were injected by subcutaneous injection in an amount of 1×10^7/0.2 mL/nude mice (cell viability>95%) into the right subaxillary of the nude mice, thus establishing leukemia transplated tumor models of in nude mice. The mice were administered from the third day after the inoculation. The treated group was intragastrically administered at the experimentally designed amount, the negative control group was intragastrically administered with sterile water, and the positive control group was intragastrically administered with IM. Each mouse was intragastrically administered in 0.4 ml each time and 2 times a day. The administrations were successive for 14 days. The day before administration was deemed as Day 0 and the body weight and tumor size of the mice were determined every 5 days to produce a dynamic plot on body weight and tumor growth. On Day 23, the mice were sacrificed and the tumors were taken out and weighed. The tumor inhibition rate (%) was calculated after the effect of the medicament based on a tumor inhibition rate of the control group being zero.

[2] = Experiment 2-1: body weight of tumor-bearing nude mice; format: in vivo, BALB/c-nu nude mice; details: 100 mg/kg each drug, intragastric, 2 times a day, 14 days, x ± s, n=3; for Body weight (g) Final: final (Day 23)
Procedure: as §2

[3] = test system: K562 (chronic myeloid leukemia cell line); assay: MTT cell viability, 72 h, single drugs and combination; format: cell-based; details: Homo sapiens, read-out: CV(%) cell viability
Excerpt: (§3) Leukemia cell lines: K562 (chronic myeloid leukemia cell line), K562/ADR (doxorubicin(ADM)-resistant human chronic granulocytic leukemia cell line), KCL-22 (chronic myeloid leukemia cell line), KCL-22 M (human chronic granulocytic leukemia cell line mutant), CML-BC (KCL-28 patient's cells), all of which are donated by Cancer Research Institute of Zhejiang University, China; KU812 (chronic myeloid leukemia cell line), purchased from Fuxiang Bio-tech Co. Ltd., Shanghai, China.
(§4) 1. […] Well-growing leukemia cells were obtained and inoculated into wells of a 96-well cell culture plate at 5000 cells/well. Respective compounds of various concentrations were added, mixed uniformly, and incubated (5% CO2) at 37° C. for 72 hours. Then the cell viability was determined by the MTT method.
(§5) 2. Determine the inhibitory effects of bisbenzylisoquinoline in combination with IM on leukemia cells in vitro. The pretreatment of the cells was the same as in a). The control group was not treated with the compound while administered. In the experimental group, compounds were added respectively to the concentration under which the IC50 (μg/mL) of the compounds in step 1 achieves. As to the combination group, the two compounds were added together into the same group of wells. After 72 hours of incubation, the MTT method was used for the determination of cell viability. The cell viability of the control group was set to 100% in this experiment, and the BBM/TTD, IM single drug and combined effects on cell viability (100%) were calculated.

[4] = test system: K562/ADR (doxorubicin(ADM)-resistant human chronic granulocytic leukemia cell line); assay: as above; format: cell-based; details: read-out: CV(%) cell viability
Excerpt: as §3, §4, §5

[5] = test system: KCL-22 (chronic myeloid leukemia cell line); assay: as above; format: cell-based; details: Homo sapiens, read-out: CV(%) cell viability
Excerpt: as §3, §4, §5

[6] = test system: KCL-22 M (human chronic granulocytic leukemia cell line mutant); assay: as above; format: cell-based; details: read-out: CV(%) cell viability
Excerpt: as §3, §4, §5

[7] = test system: CML-BC (KCL-28 patient's cells); assay: as above; format: cell-based; details: read-out: CV(%) cell viability
Excerpt: as §3, §4, §5

[8] = test system: KU812 (chronic myeloid leukemia cell line); assay: as above; format: cell-based; details: Homo sapiens, KU812, 72 h; read-out: CV(%) cell viability
Excerpt: as §3, §4, §5

[9] = test system: peripheral blood leucocyte of a normal human being; details: drug concentration 0.5 μg/mL to 10 μg/mL; cited from earlier work
[10] = test system: human leukemia Jurkat cells; details: cited from earlier work
[11] = test system: K562/ADR leukemia transplanted tumor; assay: Experiment 2-2: inhibition of leukemia transplanted tumor in nude mice (TTD, IM); format: in vivo, BALB/c-nu nude mice; details: K562/ADR xenograft, 50 mg/kg each drug, intragastric, 2 times a day, 14 days, Day 20; for Tumor inhibition rate (%): control = 0; for Tumor weight: x ± s
Procedure: Leukemia cell lines: K562/ADR (ADM-resistant human chronic myeloid leukemia cell line);
as §1
as §2, with “the sixth” for “the third”, “Day 20,” for “Day 23,”, “tumors are” for “tumors were”

[12] = Experiment 2-2: body weight of tumor-bearing nude mice; format: in vivo, BALB/c-nu nude mice; details: 50 mg/kg each drug, intragastric, 2 times a day, 14 days, x ± s, n=3; for Body weight (g) Final: final (Day 20)
Procedure: as §2, with “the sixth” for “the third”, “Day 20,” for “Day 23,”, “tumors are” for “tumors were”

## COc1cc2c3cc1Oc1c(OC)c(OC)cc4c1[C@@H](Cc1ccc(O)c(c1)Oc1ccc(cc1)C[C@@H]3N(C)CC2)N(C)CC4 [BBM, 6,6′,7-trimethoxy-2,2′-dimethylberbaman-12-ol]
[1]
  Tumor inhibition rate (%): 63.66%
  Tumor weight: 0.25 ± 0.34 g
[2]
  Body weight (g) Final: 18.57 ± 2.28 g
  Body weight (g) Initial: 21.23 ± 0.23 g
[3]; K562, BBM 1.6 μg/mL (IC50 dose), 72 h, MTT
  viability at 1.6 µg/mL: 44.5%
[4]; K562/Adr
  viability at 1.5 µg/mL: 46.3%
[5]; KCL-22, BBM 6.5 μg/mL (IC50 dose), 72 h, MTT
  viability at 6.5 µg/mL: 50%
[6]; KCL-22, 72 h
  viability at 1.7 µg/mL: 52.4%
[7]
  viability at 1.5 µg/mL: 54.4%
[8]
  viability at 1.5 µg/mL: 51.6%
[9]
  cytotoxic effect: no evident cytotoxic effect
[10]; drug concentration 0.5 μg/mL
  cell viability: 93.69%
[10]; drug concentration 10 μg/mL
  cell viability: 14.85%

## COc1ccc2cc1Oc1ccc(cc1)C[C@H]1c3cc(c(OC)cc3CCN1C)Oc1c(OC)c(OC)cc3c1[C@H](C2)N(C)CC3 [TTD, 6,6′,7,12-tetramethoxy-2,2′dimethylberbamine]
[11]
  Tumor inhibition rate (%): 10.18%
  Tumor weight: 0.83 ± 0.76 g
[12]
  Body weight (g) Final: 18.93 ± 1.53 g
  Body weight (g) Initial: 21.30 ± 0.10 g

## Cc1ccc(NC(=O)c2ccc(CN3CCN(C)CC3)cc2)cc1Nc1nccc(-c2cccnc2)n1 [IM]
[11]
  Tumor inhibition rate (%): 12.26%
  Tumor weight: 0.81 ± 0.52 g
[1]
  Tumor inhibition rate (%): 71.98%
  Tumor weight: 0.19 ± 0.27 g
[2]
  Body weight (g) Final: 17.37 ± 2.75 g
  Body weight (g) Initial: 21.00 ± 0.12 g
[3]; K562, 72 h
  viability at 0.02 µg/mL: 57.9%
  viability at 0.03 µg/mL: 44.2%
[4]; K562/ADR, IM 0.16 μg/mL (IC50 dose), MTT
  viability at 0.16 µg/mL: 42.5%
[4]; K562/Adr
  viability at 0.2 µg/mL: 42.3%
[5]; KCL-22, 72 h
  viability at 0.05 µg/mL: 51.1%
[5]; KCL-22, IM 0.08 μg/mL (IC50 dose), 72 h, MTT
  viability at 0.08 µg/mL: 48.5%
[6]; KCL-22 M, IM 3.27 μg/mL (IC50 dose), 72 h, MTT
  viability at 3.27 µg/mL: 48%
[7]
  viability at 0.01 µg/mL: 57.1%
  viability at 0.02 µg/mL: 57.1%
[8]
  viability at 0.01 µg/mL: 56.7%
  viability at 0.03 µg/mL: 53.3%
[12]
  Body weight (g) Final: 18.40 ± 0.52 g
  Body weight (g) Initial: 21.47 ± 0.21 g
